# Source: patent publication US10251892B2, “Bicyclic heterocycles as FGFR4 inhibitors” (Incyte Corporation, priority 2015, dated 2019)
# Molecular target: FGFR3 enzyme (Homo sapiens (Human), UniProt P22607)
# Assay: FGFR Enzymatic Assay (peptide phosphorylation, FRET), FGFR3
# Assay type: biochemical
# Conditions: IC50 ratio showing FGFR3 selectivity; pre-incubated for 4 hours
# Procedure: The inhibitor potency of the exemplified compounds was measured in an enzyme assay that measures peptide phosphorylation using FRET measurements to detect product formation. Inhibitors were serially diluted in DMSO and a volume of 0.5 μL was transferred to the wells of a 384-well plate.
# GraphPad prism3 was used to analyze the data.
# Sequence of FGFR3 enzyme (P22607 23-806): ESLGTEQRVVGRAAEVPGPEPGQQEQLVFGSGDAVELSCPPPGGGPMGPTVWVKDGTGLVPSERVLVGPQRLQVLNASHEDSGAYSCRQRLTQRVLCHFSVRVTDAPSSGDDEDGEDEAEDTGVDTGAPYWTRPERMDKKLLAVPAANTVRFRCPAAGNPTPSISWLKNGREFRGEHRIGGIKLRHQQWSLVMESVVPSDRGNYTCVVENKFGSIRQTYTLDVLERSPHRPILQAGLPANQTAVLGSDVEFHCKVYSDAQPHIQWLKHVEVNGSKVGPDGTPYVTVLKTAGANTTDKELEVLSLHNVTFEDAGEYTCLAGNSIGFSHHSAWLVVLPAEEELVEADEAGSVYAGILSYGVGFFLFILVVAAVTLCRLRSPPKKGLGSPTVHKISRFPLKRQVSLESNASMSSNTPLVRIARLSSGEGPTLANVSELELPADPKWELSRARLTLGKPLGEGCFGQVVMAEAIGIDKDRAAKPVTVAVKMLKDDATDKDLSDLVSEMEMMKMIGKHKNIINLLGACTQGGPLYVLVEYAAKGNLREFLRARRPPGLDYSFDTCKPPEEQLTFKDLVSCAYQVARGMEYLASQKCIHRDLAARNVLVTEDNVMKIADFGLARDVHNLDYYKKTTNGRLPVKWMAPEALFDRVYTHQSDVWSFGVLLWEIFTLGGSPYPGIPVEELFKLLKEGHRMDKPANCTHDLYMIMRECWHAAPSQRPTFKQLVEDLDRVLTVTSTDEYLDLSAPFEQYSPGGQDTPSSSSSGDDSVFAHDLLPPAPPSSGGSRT
FGFR1/FGFR3,FGFR4/FGFR3,Structure (SMILES)
>5,>1,"CCN1C(=O)N(c2c(F)c(OC)cc(OC)c2F)Cc2cnc(-c3cn(CCN4CCOCC4)nc3C)cc21 [Example 49, 3-(2,6-difluoro-3,5-dimethoxyphenyl)-1-ethyl-7-(3-methyl-1-(2-morpholinoethyl)-1H-pyrazol-4-yl)-3,4-dihydropyrido[4,3-d]pyrimidin-2(1H)-one]"
>10,>10,"COc1cc(OC)c(F)c(N2Cc3cnc(-c4cn(C)nc4C)cc3N(c3ccncn3)C2=O)c1F [Example 45, 3-(2,6-difluoro-3,5-dimethoxyphenyl)-7-(1,3-dimethyl-1H-pyrazol-4-yl)-1-pyrimidin-4-yl-3,4-dihydropyrido[4,3-d]pyrimidin-2(1H)-one]"
>5,>5,"COc1cc(OC)c(F)c(N2Cc3cnc(-c4cn(C)nc4C)cc3N(Cc3cnn(CC#N)c3)C2=O)c1F [Example 125, 2-(4-((3-(2,6-difluoro-3,5-dimethoxyphenyl)-7-(1,3-dimethyl-1H-pyrazol-4-yl)-2-oxo-3,4-dihydropyrido[4,3-d]pyrimidin-1(2H)-yl)methyl)-1H-pyrazol-1-yl)acetonitrile]"
>5,>10,"COc1cc(OC)c(F)c(N2Cc3cnc(-c4cn(C)nc4C)cc3N(c3ccc(-n4cccn4)cc3)C2=O)c1F [Example 77, 1-(4-(1H-pyrazol-1-yl)phenyl)-3-(2,6-difluoro-3,5-dimethoxyphenyl)-7-(1,3-dimethyl-1H-pyrazol-4-yl)-3,4-dihydropyrido[4,3-d]pyrimidin-2(1H)-one]"
>3,>3,"COc1cc(OC)c(F)c(N2Cc3cnc(-c4ccncc4)cc3C3(CC3)C2=O)c1F [Example 185, 2′-(2,6-difluoro-3,5-dimethoxyphenyl)-6′-(pyridin-4-yl)-1′H-spiro[cyclopropane-1,4′-[2,7]naphthyridin]-3′(2′H)-one]"
>5,>3,"COC(=O)Nc1ccc(N2C(=O)N(c3c(F)c(OC)cc(OC)c3F)Cc3cnc(-c4cn(C)nc4C)cc32)cc1 [Example 123, Methyl 4-(3-(2,6-difluoro-3,5-dimethoxyphenyl)-7-(1,3-dimethyl-1H-pyrazol-4-yl)-2-oxo-3,4-dihydropyrido[4,3-d]pyrimidin-1(2H)-yl)phenylcarbamate]"
>10,>10,"COc1cc(OC)c(F)c(N2Cc3cnc(-c4cn(C)nc4C)cc3N(Cc3cnn(C)c3C)C2=O)c1F [Example 48, 3-(2,6-difluoro-3,5-dimethoxyphenyl)-7-(1,3-dimethyl-1H-pyrazol-4-yl)-1-[(1,5-dimethyl-1H-pyrazol-4-yl)methyl]-3,4-dihydropyrido[4,3-d]pyrimidin-2(1H)-one]"
>3,>5,"CNS(=O)(=O)c1cccc(N2C(=O)N(c3c(F)c(OC)cc(OC)c3F)Cc3cnc(-c4cn(C)nc4C)cc32)c1 [Example 111, 3-(3-(2,6-difluoro-3,5-dimethoxyphenyl)-7-(1,3-dimethyl-1H-pyrazol-4-yl)-2-oxo-3,4-dihydropyrido[4,3-d]pyrimidin-1(2H)-yl)-N-methylbenzenesulfonamide]"
>5,>3,"CCN1C(=O)N(c2c(F)c(OC)cc(OC)c2F)Cc2cnc(-c3cn(CC)nc3C)cc21 [Example 168, 3-(2,6-difluoro-3,5-dimethoxyphenyl)-1-ethyl-7-(1-ethyl-3-methyl-1H-pyrazol-4-yl)-3,4-dihydropyrido[4,3-d]pyrimidin-2(1H)-one]"
>3,>10,"COc1cccc(N2C(=O)N(c3c(F)c(OC)cc(OC)c3F)Cc3cnc(-c4cn(C)nc4C)cc32)c1 [Example 109, 3-(2,6-difluoro-3,5-dimethoxyphenyl)-7-(1,3-dimethyl-1H-pyrazol-4-yl)-1-(3-methoxyphenyl)-3,4-dihydropyrido[4,3-d]pyrimidin-2(1H)-one]"
>10,>10,"COc1cc(OC)c(F)c(N2Cc3cnc(-c4cn(C)nc4C)cc3N(Cc3cnn(C4CC4)c3)C2=O)c1F [Example 124, 1-((1-cyclopropyl-1H-pyrazol-4-yl)methyl)-3-(2,6-difluoro-3,5-dimethoxyphenyl)-7-(1,3-dimethyl-1H-pyrazol-4-yl)-3,4-dihydropyrido[4,3-d]pyrimidin-2(1H)-one]"
>5,>5,"COc1cc(OC)c(F)c(N2Cc3cnc(-c4cn(C)nc4C)cc3N(Cc3cncnc3)C2=O)c1F [Example 84, 3-(2,6-difluoro-3,5-dimethoxyphenyl)-7-(1,3-dimethyl-1H-pyrazol-4-yl)-1-(pyrimidin-5-ylmethyl)-3,4-dihydropyrido[4,3-d]pyrimidin-2(1H)-one]"
>10,>5,"COc1cc(OC)c(F)c(N2Cc3cnc(-c4cn(CCCN5CCOCC5)nc4C)cc3C3(CC3)C2=O)c1F [Example 146, 2′-(2,6-difluoro-3,5-dimethoxyphenyl)-6′-(3-methyl-1-(3-morpholinopropyl)-1H-pyrazol-4-yl)-1′H-spiro[cyclopropane-1,4′-[2,7]naphthyridin]-3′(2′H)-one]"
>3,>3,"COc1cc(OC)c(F)c(N2Cc3cnc(-c4cnn(CC5CN(S(C)(=O)=O)C5)c4)cc3C3(CC3)C2=O)c1F [Example 166, 2′-(2,6-difluoro-3,5-dimethoxyphenyl)-6′-(1-((1-(methylsulfonyl)azetidin-3-yl)methyl)-1H-pyrazol-4-yl)-1′H-spiro[cyclopropane-1,4′-[2,7]naphthyridin]-3′(2′H)-one]"
>5,>10,"COc1cc(OC)c(F)c(N2Cc3cnc(-c4cn(C)nc4C)cc3N(c3cn[nH]c3)C2=O)c1F [Example 129, 3-(2,6-difluoro-3,5-dimethoxyphenyl)-7-(1,3-dimethyl-1H-pyrazol-4-yl)-1-(1H-pyrazol-4-yl)-3,4-dihydropyrido[4,3-d]pyrimidin-2(1H)-one]"
>5,>10,"COc1cc(OC)c(F)c(N2Cc3cnc(-c4cn(C)nc4C)cc3N(c3cncc(C)n3)C2=O)c1F [Example 87, 3-(2,6-difluoro-3,5-dimethoxyphenyl)-7-(1,3-dimethyl-1H-pyrazol-4-yl)-1-(6-methylpyrazin-2-yl)-3,4-dihydropyrido[4,3-d]pyrimidin-2(1H)-one]"

Structure (SMILES),FGFR1/FGFR3,FGFR4/FGFR3
"COC(=O)N1CCC(N2C(=O)N(c3c(F)c(OC)cc(OC)c3F)Cc3cnc(-c4cn(C)nc4C)cc32)CC1 [Example 122, Methyl 4-(3-(2,6-difluoro-3,5-dimethoxyphenyl)-7-(1,3-dimethyl-1H-pyrazol-4-yl)-2-oxo-3,4-dihydropyrido[4,3-d]pyrimidin-1(2H)-yl)piperidine-1-carboxylate]",>5,>5
"COc1cc(OC)c(F)c(N2Cc3cnc(-c4cn(CC(=O)N5CCOCC5)nc4C)cc3C3(CC3)C2=O)c1F [Example 159, 2′-(2,6-difluoro-3,5-dimethoxyphenyl)-6′-(3-methyl-1-(2-morpholino-2-oxoethyl)-1H-pyrazol-4-yl)-1′H-spiro[cyclopropane-1,4′-[2,7]naphthyridin]-3′(2′H)-one]",>5,>3
